In data set [1] the test system is PR20. As to conditions: compared with darunavir or wild-type PR; cited from earlier work.
Data set [2] deals with TFR-PR20. As to conditions: cited from earlier work.
Data set [3] concerns PR20. Description: Kinetic assay of PR20 proteolytic activity with fluorogenic substrate. The data set is classed as biochemical, HIV-1. The settings on record: Ki PR20 / Ki wild-type PR.
Data set [4] deals with T1, TFR-PR (Human immunodeficiency virus type 1, UniProt P03366). Description: Inhibition of N-terminal autoprocessing of wild-type precursor in E. coli. It counts as cell-based, HIV-1.
Data set [5] concerns TFR-PR20. The data set can be described thus: Inhibition of N-terminal autoprocessing of mutant precursor in E. coli. The data set is classed as cell-based, HIV-1. The settings on record: tests up to 100 μM concentration.
The target in data set [6] is PR20 (Human immunodeficiency virus type 1, UniProt P03366, D530N/I547V/I584V, form not given). The data set can be described thus: Kinetic assay of PR20 proteolytic activity with fluorogenic substrate. As to conditions: versus darunavir KL 41 nM. It counts as biochemical, HIV-1.
Data set [7] concerns highly darunavir resistant strain of HIV-1. As to conditions: strain selected in the laboratory; cited from earlier work.
The conditions of data set [8]: blood–brain barrier penetration; cited from earlier work.
The target in data set [9] is T1, TFR-PR. The settings on record: cited from earlier work.

Molecules are shown by their SMILES.

Consider `COc1ccc(S(=O)(=O)N(C[C@H]2CCC(=O)N2)C[C@@H](O)[C@H](Cc2ccccc2)NC(=O)O[C@@H]2C[C@@H]3CCO[C@@H]3C2)cc1` [GRL-02031A], for which the “binding affinity for PR20 (in words)” value in the data set with PR20 [1] is “weaker affinity for PR20”. In the data set with TFR-PR20 [2], the “inhibition of autoprocessing of PR20-containing precursors (in words)” value was “neither GRL-02031A nor GRL-0519A inhibits the autoprocessing”.

In the case of `COc1ccc(S(=O)(=O)N(CC(C)C)C[C@@H](O)[C@H](Cc2ccccc2)NC(=O)O[C@H]2CO[C@H]3OC[C@H](OC)[C@H]32)cc1` [GRL-4410A], the “fold weaker inhibition (Ki) of PR20 than wild-type PR” value in the data set with PR20 [3] was found to be 1000 fold. Further, on TFR-PR [4], the half-maximal inhibitory concentration (IC50) fell in the range of 1000 to 2000 nM. In the data set with TFR-PR20 [5], the “inhibition of autoprocessing of TFR-PR20 precursor” value is “no significant improvement was observed in the inhibition”.

As for `CC(C)CN(C[C@@H](O)[C@H](Cc1ccccc1)NC(=O)O[C@H]1CO[C@H]2OCC(F)(F)[C@H]21)S(=O)(=O)c1ccc(N)cc1` [GRL-5010A], the “fold lower Ki for PR20 relative to darunavir binding affinity (KL)” value on PR20 [6] is recorded as “about 2 fold”. In addition, the IC50 against TFR-PR [4] is 1000 to 2000 nM. For the same compound, the “inhibition of autoprocessing of TFR-PR20 precursor” value in the data set on TFR-PR20 [5] was “no significant improvement was observed in the inhibition”. The “antiviral activity against highly darunavir resistant HIV-1 (in words)” value in [7] is “moderate antiviral activity”. The “fold higher apparent permeability coefficient (Papp) than darunavir” value in [8] is reported as 6.5 fold.

Take `COC(=O)N[C@H](C(=O)N[C@@H](Cc1ccccc1)[C@@H](O)CN(Cc1ccc(-c2ccccn2)cc1)NC(=O)[C@@H](NC(=O)OC)C(C)(C)C)C(C)(C)C` [atazanavir]: the “inhibition of autoprocessing of TFR-PR relative to other clinical protease inhibitors (in words)” value on TFR-PR [9] is reported as “inhibited most effectively”.

As to `CC(C)CN(C[C@@H](O)[C@H](Cc1ccccc1)NC(=O)O[C@H]1CO[C@H]2OCC[C@H]21)S(=O)(=O)c1ccc(N)cc1` [darunavir], the “inhibition of autoprocessing of TFR-PR relative to other clinical protease inhibitors (in words)” value at TFR-PR [9] was “inhibited most effectively”. Besides, the “inhibition of autoprocessing of PR20-containing precursors (in words)” value with TFR-PR20 [2] is on record as “like darunavir, neither GRL-02031A nor GRL-0519A inhibits the autoprocessing”.

`CC(C)(C)NC(=O)[C@@H]1C[C@@H]2CCCC[C@@H]2CN1C[C@@H](O)[C@H](Cc1ccccc1)NC(=O)[C@H](CC(N)=O)NC(=O)c1ccc2ccccc2n1` [saquinavir]: the “inhibition of autoprocessing of TFR-PR relative to other clinical protease inhibitors (in words)” value at TFR-PR [9] was “inhibited most effectively”.
